Assay results as given in ChEMBL document CHEMBL1143531, “Synthesis, in vitro, and in vivo antibacterial activity of nocathiacin I thiol-Michael adducts” (2005).
Converted amounts (≈) assume the structure as drawn.

What was measured:
Format in all cases: functional
Enterococcus faecalis = experiment: In vitro minimum inhibitory concentration against methicillin sensitive Enterococcus faecalis A20688
Streptococcus pneumoniae = experiment: In vitro minimum inhibitory concentration against penicillin resistant Streptococcus pneumoniae A28272
Staphylococcus aureus = experiment: In vitro minimum inhibitory concentration against methicillin sensitive […] A15090
Mus musculus = experiment: In vivo protective dose required for mouse against systemic lethal […] infection; conditions: read-out: PD50

SMILES	MIC (Enterococcus faecalis) [µg/mL]	MIC (Streptococcus pneumoniae) [µg/mL]	MIC (Staphylococcus aureus) [µg/mL]	ED50 (Mus musculus) [mg/kg]
CO/C(C)=C1/NC(=O)C([C@@H](C)O)NC(=O)c2csc(n2)-c2cc(O)c(-c3nc(C(=O)NC(SC[C@@H]4NC(=O)NC4=O)C(N)=O)cs3)nc2-c2csc(n2)[C@@H]2COC(=O)c3c4c5c(cccc5n3O)COC(=O)[C@@H](O[C@H]3C[C@](C)(O)[C@H](N(C)C)[C@H](C)O3)[C@@H](OC4)[C@H](NC(=O)c3csc1n3)c1nc(cs1)C(=O)N2 (some centres not stated)	128 (≈ 81.5 µM)	0.03 (≈ 0.0191 µM)	4 (≈ 2.55 µM)	> 10
CO/C(C)=C1/NC(=O)C([C@@H](C)O)NC(=O)c2csc(n2)-c2cc(O)c(-c3nc(C(=O)NC(SCCc4cnccn4)C(N)=O)cs3)nc2-c2csc(n2)[C@@H]2COC(=O)c3c4c5c(cccc5n3O)COC(=O)[C@@H](O[C@H]3C[C@](C)(O)[C@H](N(C)C)[C@H](C)O3)[C@@H](OC4)[C@H](NC(=O)c3csc1n3)c1nc(cs1)C(=O)N2 (some centres not stated)	0.25 (≈ 0.16 µM)	0.015 (≈ 0.00959 µM)	0.125 (≈ 0.0799 µM)	4.4
CO/C(C)=C1/NC(=O)C([C@@H](C)O)NC(=O)c2csc(n2)-c2cc(O)c(-c3nc(C(=O)NC(SCCS(=O)(=O)[O-])C(N)=O)cs3)nc2-c2csc(n2)[C@@H]2COC(=O)c3c4c5c(cccc5n3O)COC(=O)[C@@H](O[C@H]3C[C@](C)(O)[C@H](N(C)C)[C@H](C)O3)[C@@H](OC4)[C@H](NC(=O)c3csc1n3)c1nc(cs1)C(=O)N2.[Na+] (some centres not stated)	128	0.06	4	> 10
CCN(CC)CCSC(NC(=O)c1csc(-c2nc3c(cc2O)-c2nc(cs2)C(=O)NC([C@@H](C)O)C(=O)N/C(=C(\C)OC)c2nc(cs2)C(=O)N[C@@H]2c4nc(cs4)C(=O)N[C@@H](COC(=O)c4c5c6c(cccc6n4O)COC(=O)[C@@H](O[C@H]4C[C@](C)(O)[C@H](N(C)C)[C@H](C)O4)[C@H]2OC5)c2nc-3cs2)n1)C(N)=O (some centres not stated)	0.25 (≈ 0.161 µM)	0.015 (≈ 0.00964 µM)	0.125 (≈ 0.0803 µM)	1.1
CO/C(C)=C1/NC(=O)C([C@@H](C)O)NC(=O)c2csc(n2)-c2cc(O)c(-c3nc(C(=O)NC(SCC(NC(C)=O)C(=O)O)C(N)=O)cs3)nc2-c2csc(n2)[C@@H]2COC(=O)c3c4c5c(cccc5n3O)COC(=O)[C@@H](O[C@H]3C[C@](C)(O)[C@H](N(C)C)[C@H](C)O3)[C@@H](OC4)[C@H](NC(=O)c3csc1n3)c1nc(cs1)C(=O)N2 (some centres not stated)	8 (≈ 5.04 µM)	0.125 (≈ 0.0788 µM)	2 (≈ 1.26 µM)	> 10
CO/C(C)=C1/NC(=O)C([C@@H](C)O)NC(=O)c2csc(n2)-c2cc(O)c(-c3nc(C(=O)NC(SCCN=C(N)N)C(N)=O)cs3)nc2-c2csc(n2)[C@@H]2COC(=O)c3c4c5c(cccc5n3O)COC(=O)[C@@H](O[C@H]3C[C@](C)(O)[C@H](N(C)C)[C@H](C)O3)[C@@H](OC4)[C@H](NC(=O)c3csc1n3)c1nc(cs1)C(=O)N2 (some centres not stated)	> 128	2 (≈ 1.3 µM)	4 (≈ 2.59 µM)	–
CO/C(C)=C1/NC(=O)C([C@@H](C)O)NC(=O)c2csc(n2)-c2cc(O)c(-c3nc(C(=O)NC(SCCC(=O)O)C(N)=O)cs3)nc2-c2csc(n2)[C@@H]2COC(=O)c3c4c5c(cccc5n3O)COC(=O)[C@@H](O[C@H]3C[C@](C)(O)[C@H](N(C)C)[C@H](C)O3)[C@@H](OC4)[C@H](NC(=O)c3csc1n3)c1nc(cs1)C(=O)N2 (some centres not stated)	–	0.01 (≈ 0.00654 µM)	1 (≈ 0.654 µM)	> 10
COCC(Cn1ccnc1)SC(NC(=O)c1csc(-c2nc3c(cc2O)-c2nc(cs2)C(=O)NC([C@@H](C)O)C(=O)N/C(=C(\C)OC)c2nc(cs2)C(=O)N[C@@H]2c4nc(cs4)C(=O)N[C@@H](COC(=O)c4c5c6c(cccc6n4O)COC(=O)[C@@H](O[C@H]4C[C@](C)(O)[C@H](N(C)C)[C@H](C)O4)[C@H]2OC5)c2nc-3cs2)n1)C(N)=O (some centres not stated)	0.125 (≈ 0.0783 µM)	0.03 (≈ 0.0188 µM)	0.25 (≈ 0.157 µM)	1.4
CO/C(C)=C1/NC(=O)C([C@@H](C)O)NC(=O)c2csc(n2)-c2cc(O)c(-c3nc(C(=O)NC(SC4CN5CCC4C5)C(N)=O)cs3)nc2-c2csc(n2)[C@@H]2COC(=O)c3c4c5c(cccc5n3O)COC(=O)[C@@H](O[C@H]3C[C@](C)(O)[C@H](N(C)C)[C@H](C)O3)[C@@H](OC4)[C@H](NC(=O)c3csc1n3)c1nc(cs1)C(=O)N2 (some centres not stated)	2 (≈ 1.29 µM)	0.25 (≈ 0.161 µM)	2 (≈ 1.29 µM)	2.5
CO/C(C)=C1/NC(=O)C([C@@H](C)O)NC(=O)c2csc(n2)-c2cc(O)c(-c3nc(C(=O)NC(SCCN(C)C)C(N)=O)cs3)nc2-c2csc(n2)[C@@H]2COC(=O)c3c4c5c(cccc5n3O)COC(=O)[C@@H](O[C@H]3C[C@](C)(O)[C@H](N(C)C)[C@H](C)O3)[C@@H](OC4)[C@H](NC(=O)c3csc1n3)c1nc(cs1)C(=O)N2 (some centres not stated)	0.25 (≈ 0.164 µM)	0.015 (≈ 0.00981 µM)	0.125 (≈ 0.0818 µM)	1
C=C(NC(=O)c1csc(-c2nc3c(cc2O)-c2nc(cs2)C(=O)N[C@@H]([C@@H](C)O)C(=O)N/C(=C(\C)OC)c2nc(cs2)C(=O)N[C@@H]2c4nc(cs4)C(=O)N[C@@H](COC(=O)c4c5c6c(cccc6n4O)COC(=O)[C@@H](O[C@H]4C[C@](C)(O)[C@H](N(C)C)[C@H](C)O4)[C@H]2OC5)c2nc-3cs2)n1)C(N)=O [MJ347-81F4 A]	0.03 (≈ 0.0209 µM)	0.002 (≈ 0.00139 µM)	0.007 (≈ 0.00487 µM)	0.8
CO/C(C)=C1/NC(=O)C([C@@H](C)O)NC(=O)c2csc(n2)-c2cc(O)c(-c3nc(C(=O)NC(C(N)=O)S(=O)(=O)C4C5CCN4CC5)cs3)nc2-c2csc(n2)[C@@H]2COC(=O)c3c4c5c(cccc5n3O)COC(=O)[C@@H](O[C@H]3C[C@](C)(O)[C@H](N(C)C)[C@H](C)O3)[C@@H](OC4)[C@H](NC(=O)c3csc1n3)c1nc(cs1)C(=O)N2 (some centres not stated)	1 (≈ 0.631 µM)	0.06 (≈ 0.0379 µM)	0.5 (≈ 0.316 µM)	–
CO/C(C)=C1/NC(=O)C([C@@H](C)O)NC(=O)c2csc(n2)-c2cc(O)c(-c3nc(C(=O)NC(SCCP(=O)([O-])O)C(N)=O)cs3)nc2-c2csc(n2)[C@@H]2COC(=O)c3c4c5c(cccc5n3O)COC(=O)[C@@H](O[C@H]3C[C@](C)(O)[C@H](N(C)C)[C@H](C)O3)[C@@H](OC4)[C@H](NC(=O)c3csc1n3)c1nc(cs1)C(=O)N2.[Na+] (some centres not stated)	32	0.25	2	–
CO/C(C)=C1/NC(=O)C([C@@H](C)O)NC(=O)c2csc(n2)-c2cc(O)c(-c3nc(C(=O)NC(SCC(N)C(=O)O)C(N)=O)cs3)nc2-c2csc(n2)[C@@H]2COC(=O)c3c4c5c(cccc5n3O)COC(=O)[C@@H](O[C@H]3C[C@](C)(O)[C@H](N(C)C)[C@H](C)O3)[C@@H](OC4)[C@H](NC(=O)c3csc1n3)c1nc(cs1)C(=O)N2 (some centres not stated)	4 (≈ 2.59 µM)	2 (≈ 1.29 µM)	1 (≈ 0.647 µM)	–
CO/C(C)=C1/NC(=O)C([C@@H](C)O)NC(=O)c2csc(n2)-c2cc(O)c(-c3nc(C(=O)NC(SCCc4nnn[nH]4)C(N)=O)cs3)nc2-c2csc(n2)[C@@H]2COC(=O)c3c4c5c(cccc5n3O)COC(=O)[C@@H](O[C@H]3C[C@](C)(O)[C@H](N(C)C)[C@H](C)O3)[C@@H](OC4)[C@H](NC(=O)c3csc1n3)c1nc(cs1)C(=O)N2 (some centres not stated)	32 (≈ 20.6 µM)	0.25 (≈ 0.161 µM)	2 (≈ 1.29 µM)	> 10
CCN(CC)CCS(=O)(=O)C(NC(=O)c1csc(-c2nc3c(cc2O)-c2nc(cs2)C(=O)NC([C@@H](C)O)C(=O)N/C(=C(\C)OC)c2nc(cs2)C(=O)N[C@@H]2c4nc(cs4)C(=O)N[C@@H](COC(=O)c4c5c6c(cccc6n4O)COC(=O)[C@@H](O[C@H]4C[C@](C)(O)[C@H](N(C)C)[C@H](C)O4)[C@H]2OC5)c2nc-3cs2)n1)C(N)=O (some centres not stated)	0.03 (≈ 0.0189 µM)	0.007 (≈ 0.00441 µM)	0.06 (≈ 0.0378 µM)	1.4
CO/C(C)=C1/NC(=O)C([C@@H](C)O)NC(=O)c2csc(n2)-c2cc(O)c(-c3nc(C(=O)NC(SC(CC(=O)O)C(=O)O)C(N)=O)cs3)nc2-c2csc(n2)[C@@H]2COC(=O)c3c4c5c(cccc5n3O)COC(=O)[C@@H](O[C@H]3C[C@](C)(O)[C@H](N(C)C)[C@H](C)O3)[C@@H](OC4)[C@H](NC(=O)c3csc1n3)c1nc(cs1)C(=O)N2 (some centres not stated)	4 (≈ 2.54 µM)	0.25 (≈ 0.159 µM)	4 (≈ 2.54 µM)	> 10
CO/C(C)=C1/NC(=O)C([C@@H](C)O)NC(=O)c2csc(n2)-c2cc(O)c(-c3nc(C(=O)NC(SCC(=O)O)C(N)=O)cs3)nc2-c2csc(n2)[C@@H]2COC(=O)c3c4c5c(cccc5n3O)COC(=O)[C@@H](O[C@H]3C[C@](C)(O)[C@H](N(C)C)[C@H](C)O3)[C@@H](OC4)[C@H](NC(=O)c3csc1n3)c1nc(cs1)C(=O)N2 (some centres not stated)	1 (≈ 0.66 µM)	0.125 (≈ 0.0825 µM)	2 (≈ 1.32 µM)	> 10
